{"source": "patent US20140328898A1", "about": "“Nano-Liposomal Formulations and Methods of Use” (CHILDREN'S NATIONAL MEDICAL CENTER, priority 2013, published 2014)", "experiment": "Size-dependent transdermal penetration of PEGylated and anionic liposomes through the stratum corneum of porcine ear tissue (Example 2), DiI fluorescence intensity profiles", "type": "in vitro ADME, Yorkshire piglets", "details": "free dye applied to the skin in liposome-free buffer (control)", "description": "For PEGylated liposomes, dimyristoylphosphatidylcholine (DMPC), cholesterol, and dipalmitoylphosphatidylethanolamine-PEG 2000 (PEG2000-PE) (Avanti Polar Lipids Inc., Alabaster, Ala.) were combined in chloroform (Mallinckrodt Baker Inc., Phillipsburg, N.J.) at a molar ratio of 70:25:5. For anionic liposomes, DMPC, cholesterol (both from Avanti), and anionic surfactant dihexadecyl phosphate (DCP) (Sigma Aldrich, St. Louis, Mo.) were mixed in chloroform (Mallinckrodt Baker Inc.) at a molar ratio of 50:40:10. The lipid mixtures were prepared in glass scintillation vials then stored in a vacuum desiccator for at least 24 hours for complete solvent removal. The desiccated lipid mixtures were re-dissolved in anhydrous ethanol (Sigma Aldrich) for a total lipid concentration of 40 mM. To assist in fluorescent imaging, a lipophilic membrane dye, 1,1′-dioctadecyl-3,3,3′,3′-tetramethylindocarbocyanine perchlorate (DiI-C18; DiI) (Life Technologies, Carlsbad, Calif.) was included into the lipid mixtures (1 wt %). […]\nThe microfluidic-generated liposomes contained lipophilic DiI in their bilayers and hydrophilic SF in their cores to enable fluorescence imaging of tissue penetration depth. […]"}
{"smiles": "O=C([O-])c1ccccc1-c1c2ccc(=O)cc-2oc2cc([O-])ccc12.[Na+].[Na+]", "note": "[free SF dye, sodium fluorescein salt]", "values": [{"measurement": "SF dye penetration beyond the SC (in words)", "result": "no penetration beyond the SC was observed"}]}
